# How the values were obtained:
# NFκB = assay: TNFα-induced NFκB activation reporter assay in 293/NFκB-Luc cells; type: cell-based; conditions: Homo sapiens; TNFα-stimulated 293/NFκB-Luc, luciferase; replicate values separated by /; read-out: pro-inflammatory cytokine production IC50 (NFKB)
# Experimental: Cell lysates were prepared by removing media and adding lysis buffer. 5× volume Luciferase Assay Reagent was added to each well prior to read plate. Luminescence was recorded using Perkin-Elmer Victor III plate reader (Perkin-ElmerLife Sciences, Boston, Mass., USA).
# All IC50 values were determined by using Xlfit™ software (version 2.0) from ID Business Solutions (Guildford, UK). Background was defined in culture with cells treated with DMSO only and was subtracted for IC50 calculations.
# [1] = test system: IL-22 induced psoriasis-like mouse models; assay: IL-22 induced psoriasis-like mouse model, ear thickness; type: in vivo, BABL/c mice; parameters: AUC of ear thickness: unit not given here
# Experimental: • BABL/c mice, male, body weight 19-22 g, purchased from Shanghai SLC AnimalCenter. • Room temperature: 24±1° C. • Room relative humidity: 40-70% • Light cycle: Fluorescent light for 12-hour light (8:00-20:00) 12-hour dark • Animal hosting: 4 mice/cage • Food: Free access to food (irradiated, Shanghai SLAC Laboratory Animal Co. Ltd., China) • Water: Free access to tap water from local supply (first filtered by Molanimal ultrapure water machine from the municipal water supply) Instruments • MJ Research PTC-200 Peltier Thermal cycler (Alpha Unit™ Block Assembly for PTC DNA Engine™ systems) • Applied Biosystems 7500 realtime PCR system • Digimatic micrometer caliper: Mitutoyo, Japan. Accuracy: 0.001 mm Reagents • Recombinant mouse IL-22 (rmIL-22), Novoprotein (sinobio), Cat. C047, Lot. 0375351 • High capacity cDNA Reverse Transcription kit, Applied Biosystems, Part No.: 4368813, Lot: 0909069 • Thermo Scientific ABsolute SYBR Green Rox Mix, Thermo Scientific, Cat: AB-1163/A, Lot: 0911/16 Positive Control • Protopic® (tacrolimus, FK506), 0.1% ointment, Astellas Toyama Co., Ltd. Toyama Plant, H20100079, Lot: 028680. Dosing Regimen
# Different concentrations of test samples, vehicle, or 0.1% of FK506 ointment, were topically administrated at 1% one hour after the induction of model and then given daily from day 1 to day 11, twice a day. The first day of administration of a test article was regarded as day 0.
# Topical application, b.i.d.
# Intradermal injection of 20 μL PBS, either alone or containing 100 or 500 ng recombinant mouse IL-22 (eBiosience), was administered into the ears of anesthetized mice using a 30-gauge needle every other day for eleven days. Ear thicknesses were measured before injection on day 0 and thereafter on days without injections. Ear measurements were taken at the center of the ears using a digimatic micrometer caliper (Mitutoyo).
# Twenty-four hours after the last IL-22 treatment, mice were sacrificed, and ears were collected for further analysis.
# Results of ear thickness data were expressed as mean±S. E. M. AUC of ear swelling was calculated by the ear thickness data from day 0 to day 11, and analyzed by repeated-measured ANOVA methods with IMP® software. Cytokine protein and gene expression data were evaluated with a one-way ANOVA and followed by student's t-test for post-hoc analysis. (Significance level was set at p<0.05).
# [2] = study 1, IL-22 100 ng in 20 μL i.d.
# [3] = study 1, IL-22 500 ng in 20 μL i.d.
molecule,measurement,setting,value
"C=C1CC[C@@H]2[C@](C)(CO)[C@H](O)CC[C@@]2(C)[C@@H]1C/C=C1/C(=O)OC[C@H]1O [LGT, Andrographolide]",IC50,NFκB,0.45 ng/mL
"C=CC[C@@H]1/C=C(\C)C[C@H](C)C[C@H](OC)[C@H]2O[C@@](O)(C(=O)C(=O)N3CCCC[C@H]3C(=O)O[C@H](/C(C)=C/[C@@H]3CC[C@@H](O)[C@H](OC)C3)[C@H](C)[C@@H](O)CC1=O)[C@H](C)C[C@@H]2OC [FK506, tacrolimus]",AUC of ear thickness,"[1]; study 2, 0.1% topical b.i.d.",403
same,ear thickness on day 11,"[1]; study 2, 0.1% topical b.i.d.",256.8 ± 3.5 μm
same,inhibition of AUC of ear thickness,"[1]; study 2, 0.1% topical b.i.d.",79.2%
same,AUC of ear thickness,"[1]; study 3, 0.1% topical b.i.d.",369
same,ear thickness on day 11,"[1]; study 3, 0.1% topical b.i.d.",278.8 ± 5.0 μm
same,inhibition of AUC of ear thickness,"[1]; study 3, 0.1% topical b.i.d.",81.3%
same,AUC of ear thickness,"[1]; study 4, 0.1% topical b.i.d.",446
same,ear thickness on day 11,"[1]; study 4, 0.1% topical b.i.d.",260.4 ± 4.5 μm
same,inhibition of AUC of ear thickness,"[1]; study 4, 0.1% topical b.i.d.",80.4%
same,AUC of ear thickness,"[1]; study 5, 0.1% topical b.i.d.",454
same,ear thickness on day 11,"[1]; study 5, 0.1% topical b.i.d.",263.4 ± 6.3 μm
same,inhibition of AUC of ear thickness,"[1]; study 5, 0.1% topical b.i.d.",70.4%
"IL-22: Recombinant mouse IL-22, injected intradermally into ears to induce the psoriasis-like model (protein, UniProt Q9JJY9 34-179, looked up) Interleukin-22: LPVNTRCKLEVSNFQQPYIVNRTFMLAKEASLADNNTDVRLIGEKLFRGVSAKDQCYLMKQVLNFTLEDVLLPQSDRFQPYMQEVVPFLTKLSNQLSSCHISGDDQNIQKNVRRLKETVKKLGESGEIKAIGELDLLFMSLRNACV",AUC of ear thickness,[1]; [2],590
same,ear thickness on day 11,[1]; [2],"248.3 ± 1.9, μm"
same,ear thickness (d15),"[1]; study 1, IL-22 100 ng in 20 μL i.d., d15",255.3 ± 15.1 μm
same,AUC of ear thickness,[1]; [3],1055
same,ear thickness on day 11,[1]; [3],"311.3 ± 18.0, μm"
same,"ear thickness, second value","[1]; study 1, IL-22 500 ng in 20 μL i.d., second value (day not given)",296.3 ± 5.0 μm

# From patent publication US11116811B2, “Pharmaceutical composition comprising refined indigo naturalis extracts and the use thereof” (Galderma S.A., priority 2015, dated 2021)
